According to ChEMBL document CHEMBL1201862, “PubChem BioAssay data set” (2004):
Activity calls are given as the source filed them.

What was measured:
[1] = biological target: T1, Adenosylmethionine-8-amino-7-oxononanoate aminotransferase (Mycobacterium tuberculosis, UniProt P9WQ81); experiment: Mycobacterium tuberculosis BioA enzyme inhibitor Measured in Biochemical System Using Plate Reader - 2163-02_Inhibitor_Dose_CherryPick_Activity.; format: functional, Mycobacterium tuberculosis UT205
T1 sequence (P9WQ81 whole entry): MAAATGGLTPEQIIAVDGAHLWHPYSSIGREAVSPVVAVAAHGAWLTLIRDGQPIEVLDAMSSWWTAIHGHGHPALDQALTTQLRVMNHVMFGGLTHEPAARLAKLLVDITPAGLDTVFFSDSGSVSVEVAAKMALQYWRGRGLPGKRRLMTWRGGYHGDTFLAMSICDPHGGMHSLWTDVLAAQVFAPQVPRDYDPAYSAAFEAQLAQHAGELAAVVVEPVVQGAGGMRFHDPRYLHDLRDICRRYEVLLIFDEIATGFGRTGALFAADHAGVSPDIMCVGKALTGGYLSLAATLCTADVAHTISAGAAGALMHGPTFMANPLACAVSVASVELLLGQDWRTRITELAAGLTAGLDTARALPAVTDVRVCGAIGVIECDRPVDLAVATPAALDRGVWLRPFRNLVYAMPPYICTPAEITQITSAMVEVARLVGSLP

[2] = cells; format: functional, cell-based
[3] = biological target: Heat shock protein HSP 90-alpha (Homo sapiens, UniProt P07900); format: functional, organism-based
[4] = biological target: T2, Corticotropin-releasing factor receptor 2/Corticotropin-releasing factor-binding protein (Homo sapiens, UniProt P24387+Q13324); experiment: Dose Response confirmation of uHTS hits for small molecule antagonists of the CRF-binding protein and CRF-R2 receptor complex.; format: functional; conditions: read-out: IC50_Mean
T2 sequence (Q13324 whole entry): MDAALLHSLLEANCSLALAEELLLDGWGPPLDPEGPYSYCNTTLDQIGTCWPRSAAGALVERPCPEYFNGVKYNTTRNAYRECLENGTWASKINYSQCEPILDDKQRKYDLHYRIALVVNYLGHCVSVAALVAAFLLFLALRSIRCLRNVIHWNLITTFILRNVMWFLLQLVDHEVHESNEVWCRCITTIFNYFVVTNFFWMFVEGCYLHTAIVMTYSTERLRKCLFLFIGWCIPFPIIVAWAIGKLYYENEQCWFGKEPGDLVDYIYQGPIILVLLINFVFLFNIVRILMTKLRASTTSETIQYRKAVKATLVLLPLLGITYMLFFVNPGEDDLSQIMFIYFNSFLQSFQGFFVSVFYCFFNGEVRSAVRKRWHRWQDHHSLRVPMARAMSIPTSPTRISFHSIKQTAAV
T2 sequence (P24387 whole entry): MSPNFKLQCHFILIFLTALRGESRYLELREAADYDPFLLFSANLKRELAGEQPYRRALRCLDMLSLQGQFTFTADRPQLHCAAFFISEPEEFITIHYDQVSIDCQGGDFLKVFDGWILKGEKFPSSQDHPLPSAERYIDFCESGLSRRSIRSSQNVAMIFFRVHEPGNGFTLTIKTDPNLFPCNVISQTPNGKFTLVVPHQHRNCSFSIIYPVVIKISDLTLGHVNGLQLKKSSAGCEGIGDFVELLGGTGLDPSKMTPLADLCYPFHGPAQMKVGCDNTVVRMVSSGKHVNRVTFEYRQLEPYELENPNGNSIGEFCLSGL

[5] = blockers of CRF-binding protein–CRF-R2 complex – cell-based, uHTS hits, 384-well, dose response (AID 651639); format: functional, Homo sapiens; conditions: read-out: IC50_Mean
[6] = biological target: T2, Corticotropin-releasing factor receptor 2/Corticotropin-releasing factor-binding protein; experiment: activators of CRF receptor 2 with binding protein – uHTS hits, confirmation (AID 602473); format: functional; conditions: read-out: EC50_Mean
[7] = Luminescence Cell-Based Dose Response HTS to Identify Inhibitors of 5'UTR Stem-Loop Driven Prion Protein mRNA Translation in H4 Neuroglioblastoma Cells. [Related pubchem assays: 1827 (Project Summary), 1813 (Primary HTS)]; format: functional
[8] = system: HEK293; experiment: EBV LMP1 TES2 canonical NF-kB signalling blockers – cell-based, HEK293, luciferase, cherry-pick, dose response (AID 588343); format: functional; conditions: Homo sapiens
[9] = luciferase reporter signal suppression in cells – H4 neuroglioma cells, luminescence, dose response (AID 1990); format: functional, cell-based
[10] = alpha-synuclein stem-loop luciferase translation blockers – H4 neuroglioma cells, luminescence, confirmation (AID 1988); format: functional, cell-based
[11] = biological target: T3, Heat shock factor protein 1 (Mus musculus, UniProt P38532); experiment: decrease of HSF1-responsive luciferase luminescence – cell-based, NIH3T3, dose retest, confirmation (AID 2382); format: functional;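 note: NIH3T3 fibroblasts with HSF1-driven luciferase reporter stressed by proteasome inhibitor MG132; luminescence from HSF1-driven luciferase expression after 8 hours of MG132 stress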
T3 sequence (P38532 whole entry): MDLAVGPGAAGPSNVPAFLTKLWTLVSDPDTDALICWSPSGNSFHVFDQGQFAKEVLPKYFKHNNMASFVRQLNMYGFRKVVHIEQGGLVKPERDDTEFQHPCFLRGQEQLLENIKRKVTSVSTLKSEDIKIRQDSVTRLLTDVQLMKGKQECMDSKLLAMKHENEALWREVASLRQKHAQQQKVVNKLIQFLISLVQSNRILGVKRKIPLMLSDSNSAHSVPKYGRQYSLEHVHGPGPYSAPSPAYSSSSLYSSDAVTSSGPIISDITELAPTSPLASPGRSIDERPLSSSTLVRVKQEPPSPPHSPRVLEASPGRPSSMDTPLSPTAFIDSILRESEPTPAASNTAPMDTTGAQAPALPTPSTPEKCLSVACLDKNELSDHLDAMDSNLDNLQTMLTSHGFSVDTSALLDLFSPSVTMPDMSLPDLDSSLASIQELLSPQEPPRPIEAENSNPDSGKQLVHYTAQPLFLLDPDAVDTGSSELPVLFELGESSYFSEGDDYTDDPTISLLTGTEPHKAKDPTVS

[12] = biological target: T4, Sentrin-specific protease 7 (Homo sapiens, UniProt Q9BQF6); format: functional;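 note: Luminescence-based dose-response confirmation of ultra-high-throughput screening hits, measuring inhibition of SENP7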
T4 sequence (Q9BQF6 whole entry): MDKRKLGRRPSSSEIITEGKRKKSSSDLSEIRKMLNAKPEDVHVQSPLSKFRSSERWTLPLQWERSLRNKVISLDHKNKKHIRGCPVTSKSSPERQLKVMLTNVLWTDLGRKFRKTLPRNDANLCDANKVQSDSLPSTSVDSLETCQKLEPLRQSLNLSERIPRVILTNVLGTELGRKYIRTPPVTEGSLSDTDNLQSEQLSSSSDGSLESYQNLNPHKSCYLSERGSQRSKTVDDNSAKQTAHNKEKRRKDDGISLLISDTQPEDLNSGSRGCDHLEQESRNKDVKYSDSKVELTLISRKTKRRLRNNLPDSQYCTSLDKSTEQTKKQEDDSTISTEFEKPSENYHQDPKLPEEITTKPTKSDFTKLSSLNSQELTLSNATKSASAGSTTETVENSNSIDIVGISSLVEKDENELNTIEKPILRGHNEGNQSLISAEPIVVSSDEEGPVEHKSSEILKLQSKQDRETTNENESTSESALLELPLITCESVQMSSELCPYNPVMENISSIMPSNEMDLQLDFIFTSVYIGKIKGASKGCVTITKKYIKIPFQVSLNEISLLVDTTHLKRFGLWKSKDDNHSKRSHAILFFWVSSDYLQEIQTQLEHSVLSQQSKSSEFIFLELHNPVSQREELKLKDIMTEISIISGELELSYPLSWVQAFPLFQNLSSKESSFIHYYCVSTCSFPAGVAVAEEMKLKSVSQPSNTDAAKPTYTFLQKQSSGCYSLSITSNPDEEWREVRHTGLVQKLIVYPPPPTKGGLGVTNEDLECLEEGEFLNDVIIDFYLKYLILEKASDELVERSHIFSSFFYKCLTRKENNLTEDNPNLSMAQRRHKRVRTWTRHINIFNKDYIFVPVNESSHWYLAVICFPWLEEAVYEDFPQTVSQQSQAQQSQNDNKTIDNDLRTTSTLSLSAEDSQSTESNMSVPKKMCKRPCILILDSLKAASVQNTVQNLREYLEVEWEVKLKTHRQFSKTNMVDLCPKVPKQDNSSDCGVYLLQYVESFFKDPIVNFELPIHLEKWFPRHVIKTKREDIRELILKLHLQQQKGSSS

[13] = biological target: T5, Sentrin-specific protease 6 (Homo sapiens, UniProt Q9GZR1); format: functional;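 note: Luminescence-based dose-response confirmatory assay of SENP6 inhibition, following up an ultra-high-throughput screen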
T5 sequence (Q9GZR1 whole entry): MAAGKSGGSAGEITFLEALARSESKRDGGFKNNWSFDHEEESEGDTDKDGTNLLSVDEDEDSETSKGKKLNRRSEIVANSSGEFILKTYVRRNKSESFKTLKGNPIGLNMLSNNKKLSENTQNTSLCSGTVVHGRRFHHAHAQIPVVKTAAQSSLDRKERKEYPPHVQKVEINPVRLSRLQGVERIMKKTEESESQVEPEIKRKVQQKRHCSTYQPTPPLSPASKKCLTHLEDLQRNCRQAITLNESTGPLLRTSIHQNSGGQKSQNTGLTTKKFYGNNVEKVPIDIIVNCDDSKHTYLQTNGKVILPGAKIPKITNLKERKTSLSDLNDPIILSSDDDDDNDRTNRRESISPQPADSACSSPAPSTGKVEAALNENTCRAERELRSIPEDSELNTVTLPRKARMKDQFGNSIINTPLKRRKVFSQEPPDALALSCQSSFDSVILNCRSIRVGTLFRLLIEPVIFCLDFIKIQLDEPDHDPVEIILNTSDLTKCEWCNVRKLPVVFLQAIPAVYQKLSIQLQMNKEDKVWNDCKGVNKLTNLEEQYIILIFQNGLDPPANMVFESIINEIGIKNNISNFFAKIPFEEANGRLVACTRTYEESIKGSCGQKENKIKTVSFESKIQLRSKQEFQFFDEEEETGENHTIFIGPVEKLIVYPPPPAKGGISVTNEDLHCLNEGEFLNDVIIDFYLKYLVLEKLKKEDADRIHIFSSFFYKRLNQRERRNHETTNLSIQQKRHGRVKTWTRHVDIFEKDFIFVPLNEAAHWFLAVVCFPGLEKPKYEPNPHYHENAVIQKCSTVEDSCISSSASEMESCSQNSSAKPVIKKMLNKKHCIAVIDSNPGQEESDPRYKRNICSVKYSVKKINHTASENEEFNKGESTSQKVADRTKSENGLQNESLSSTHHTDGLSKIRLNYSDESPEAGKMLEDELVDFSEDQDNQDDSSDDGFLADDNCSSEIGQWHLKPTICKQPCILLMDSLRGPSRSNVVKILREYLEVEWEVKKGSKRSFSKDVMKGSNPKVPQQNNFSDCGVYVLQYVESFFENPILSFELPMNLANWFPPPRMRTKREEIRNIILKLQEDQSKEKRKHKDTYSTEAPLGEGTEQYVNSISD

[14] = biological target: T6, Sentrin-specific protease 8 (Homo sapiens, UniProt Q96LD8); format: functional;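 note: luminescence read-out of SENP8 inhibition, dose-response confirmation following an ultra-high-throughput screen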
T6 sequence (Q96LD8 whole entry): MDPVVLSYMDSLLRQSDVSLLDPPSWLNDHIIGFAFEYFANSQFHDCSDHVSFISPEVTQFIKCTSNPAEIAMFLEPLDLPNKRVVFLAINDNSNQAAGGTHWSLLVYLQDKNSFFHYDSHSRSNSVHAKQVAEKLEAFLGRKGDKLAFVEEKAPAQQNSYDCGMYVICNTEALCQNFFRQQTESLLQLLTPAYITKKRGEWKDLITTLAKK

[15] = biological target: T7, Caspase-3 (Homo sapiens, UniProt P42574); format: functional;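 note: Dose-response selectivity test against caspase-3 for candidate inhibitors of sentrin-specific proteases (SENPs)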
T7 sequence (P42574 whole entry): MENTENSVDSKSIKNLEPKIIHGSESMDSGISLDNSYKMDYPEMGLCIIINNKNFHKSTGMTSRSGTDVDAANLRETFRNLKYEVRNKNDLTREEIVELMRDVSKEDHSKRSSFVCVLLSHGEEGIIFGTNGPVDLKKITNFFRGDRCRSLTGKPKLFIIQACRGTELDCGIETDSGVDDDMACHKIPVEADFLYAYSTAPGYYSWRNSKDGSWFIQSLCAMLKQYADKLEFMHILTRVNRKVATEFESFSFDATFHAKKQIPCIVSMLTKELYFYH

[16] = viability of uninfected HEp-2 cells – cell-based, HTS, cytotoxicity control for RSV inhibitor project, dose response (AID 2410); format: functional; conditions: human respiratory syncytial virus

For `O=C(Nc1ncc2c(n1)CC(c1ccco1)CC2=O)c1ccccc1` (stereo unspecified), the AC50 [1] was 0.657 µM (active) and the EC50 [2] was > 350 µM (not active).
In the case of `CCC(CO)Oc1cc(NC(=O)c2cccc(F)c2)c2ncn(C(C)C)c2c1` (stereo unspecified), the AC50 [1] is reported as 5 µM (active).
For `O=C(O)CC/C(=N/Nc1ccc([N+](=O)[O-])cc1)C(=O)O`, the AC50 [3] was 4.79 µM (active).
With `CC(NC(=O)CC(c1ccccc1)c1cc(Cl)ccc1O)c1ccccc1` (stereo unspecified) the IC50 [4] was 13.1 µM (active), the IC50 [5] was > 20 µM (inactive) and the EC50 [6] was > 53 µM (inactive).
For `O=C(N[C@H]1CC[C@@H](CCn2cc(-c3cccnc3)nn2)O[C@@H]1CO)c1ccccc1F`, the AC50 [1] was 11.7 µM (active).
With `CC1CCc2nc(N)c(C#N)c(-c3cccnc3)c2C1` (stereo unspecified) the EC50 [7] was 7.72 µM (active), the AC50 [8] was 9.95 µM (active) and the EC50 [9] was 21.9 µM (active). The EC50 [10] was > 120 µM (not active) and the EC50 [11] was 1.83 µM (active).
In the case of `Cn1ncc2cc3c(Nc4ccc(Cl)cc4)cccc3nc21`, the AC50 [1] is reported as 5.67 µM (active).
For `CC1=NN(C(N)=S)C(=O)C1N=Nc1ccccc1` (stereo unspecified), the IC50 [12] was 5.13 µM (active), the IC50 [13] was 21.6 µM (active) and the IC50 [14] was > 100 µM (inactive). For the same compound, the IC50 [15] was 3.7 µM (active).
With `COC(=O)C1CCN(C2CC(=O)N(c3cc(C)cc(C)c3)C2=O)CC1` (stereo unspecified) the AC50 [3] was 7.09 µM (active).
In the case of `CCOC(=O)c1sc(NC(=O)c2ccc(C)s2)cc1C`, the IC50 [12] is reported as 4.46 µM (active), the IC50 [13] is reported as > 100 µM (inactive) and the IC50 [14] is reported as > 100 µM (inactive). For the same compound, the IC50 [15] was 20.3 µM (active).
In the case of `CCS(=O)(=O)Nc1cccc(-c2cc(-c3ccccc3)c3cc(C)ccc3n2)c1`, the AC50 [3] is reported as 4.3 µM (active) and the CC50 [16] is reported as 12 µM (active).
With `COc1ccc(NC(=O)CN(C)C(=O)C2=COCCO2)cc1` the IC50 [4] was < 0.368 µM (active), the IC50 [5] was > 20 µM (inactive) and the EC50 [6] was > 53 µM (inactive).
In the case of `Cc1nn(-c2ccccc2)c(N)c1Sc1ccc([N+](=O)[O-])cc1`, the IC50 [4] is reported as < 0.368 µM (active), the IC50 [5] is reported as 12.8 µM (active) and the EC50 [6] is reported as > 53 µM (inactive).
